Values quoted from earlier work in patent US20060068015A1, “Solid dosage form comprising a fibrate and a statin” (priority 2003, published 2006).
Blank lines part the entries; values can stand above or below the compound they belong to.

Experiments:
[1] = for solubility in water: water / distilled water

SMILES: O=C(O)C[C@H](O)C[C@H](O)/C=C/c1c(C2CC2)nc2ccccc2c1-c1ccc(F)cc1 [pitavastatin]
- solubility in water [1]: poor water-solubility

SMILES: CC(C)(Oc1ccc(C(=O)c2ccc(Cl)cc2)cc1)C(=O)O [Fenofibric acid]
- elimination half-life (in vivo): about 20 hours

SMILES: CC[C@H](C)C(=O)O[C@H]1C[C@H](O)C=C2C=C[C@H](C)[C@H](CC[C@@H](O)C[C@@H](O)CC(=O)[O-])[C@H]21.[Na+] (relative stereo) [Pravastatin sodium, 1-naphthalene-heptanoic acid, 1,2,6,7,8,8a-hexahydro-(beta), (beta),6-trihydroxy-2-methyl-8-(2-methyl-1-oxobutoxy)-, monosodium salt, [1S-[1(alpha)((beta)S*,(beta)S*),2(alpha),6(alpha), 8(beta)(R*),8a(alpha)]]-]
- solubility in acetone ([1]; acetone): practically insoluble
- solubility in acetonitrile ([1]; acetonitrile): practically insoluble
- solubility in chloroform ([1]; chloroform): practically insoluble
- solubility in ether ([1]; ether): practically insoluble

SMILES: CC[C@H](C)C(=O)O[C@H]1C[C@H](O)C=C2C=C[C@H](C)[C@H](CC[C@@H](O)C[C@@H](O)CC(=O)O)[C@H]21 [Pravastatin]
- bioavailability (oral administration): about 30%
- solubility in water [1]: water-soluble

SMILES: CC(C)c1c(C(=O)Nc2ccccc2)c(-c2ccccc2)c(-c2ccc(F)cc2)n1CC[C@@H](O)C[C@@H](O)CC(=O)O [Atorvastatin]
- systemic availability of HMG-COA reductase inhibitory activity (oral administration): approximately 30%

Continued, values first:

- bioavailability (oral administration): about 50%
- solubility in water [1]: poor water-solubility
SMILES: CC(C)c1nc(N(C)S(C)(=O)=O)nc(-c2ccc(F)cc2)c1/C=C/[C@@H](O)C[C@@H](O)CC(=O)O [Rosuvastatin]

- solubility in water [1]: water-soluble
SMILES: CC(C)n1c(/C=C/C(O)CC(O)CC(=O)O)c(-c2ccc(F)cc2)c2ccccc21 (stereo not shown) [fluvastatin]

- solubility in water [1]: poor water-solubility
SMILES: CC[C@H](C)C(=O)O[C@H]1C[C@@H](C)C=C2C=C[C@H](C)[C@H](CC[C@@H]3C[C@@H](O)CC(=O)O3)[C@H]21 [lovastatin]
